Measured values reported in ChEMBL document CHEMBL1201862, “PubChem BioAssay data set” (2004).
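Following 48 hours of exposure in 96-well plates, responses at five concentrations were used to interpolate endpoints linearly. Here, GI50 denotes the concentration required for 50% inhibition of growth.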 Calls of active or inactive are those of the source. Cut-off read from the data, not from the text of the source: active = GI50 up to about 1.1 µM and inactive = higher.

Columns and labels:
Assay in all cases: growth of human tumour cells (NCI), 48 h
A498 = test system: A498
COLO 205 = test system: COLO 205
DLD-1 = test system: DLD-1
HOP-62 = test system: HOP-62
KM-20L2 = test system: KM-20L2
KM12 = test system: KM12
MDA-MB-435 = test system: MDA-MB-435
Malme-3M = test system: Malme-3M
NCI-H23 = test system: NCI-H23
NCI-H522 = test system: NCI-H522
NCI/ADR-RES = test system: NCI/ADR-RES
RPMI-8226 = test system: RPMI-8226
SF-539 = test system: SF-539
SK-MEL-2 = test system: SK-MEL-2
SK-OV-3 = test system: SK-OV-3
SW-620 = test system: SW-620
T47D = test system: T47D
U-251 = test system: U-251
UACC-257 = test system: UACC-257
UO-31 = test system: UO-31

COc1c(O)c2ccccc2c2cc(O)ccc12
GI50 (A498): 8.45 µM (inactive) | GI50 (COLO 205): 16 µM (inactive) | GI50 (DLD-1): 8.79 µM (inactive) | GI50 (HOP-62): 10.6 µM (inactive) | GI50 (KM-20L2): 22.5 µM (inactive) | GI50 (KM12): 11.6 µM (inactive) | GI50 (MDA-MB-435): 1 µM (active) | GI50 (Malme-3M): 1.66 µM (inactive) | GI50 (NCI-H23): 2.86 µM (inactive) | GI50 (NCI-H522): 5.4 µM (inactive) | GI50 (NCI/ADR-RES): 6.98 µM (inactive) | GI50 (RPMI-8226): 7.21 µM (inactive) | GI50 (SF-539): 3.69 µM (inactive) | GI50 (SK-MEL-2): 4.79 µM (inactive) | GI50 (SK-OV-3): 20.5 µM (inactive) | GI50 (SW-620): 3.18 µM (inactive) | GI50 (T47D): 13.5 µM (inactive) | GI50 (U-251): 5.22 µM (inactive) | GI50 (UACC-257): 2.1 µM (inactive) | GI50 (UO-31): 4.04 µM (inactive)
